# From paper PMC8793051 (ACS Omega, 2022)
# Tests used:
# [1] = system: oligo-1: d(CGCGAATTCGCG)2; experiment: Fluorescence titration; format: binding; conditions: 20 °C, pH 7.2
# [2] = system: oligo-2: d(CGATGTACATCG)2; experiment: Fluorescence titration; format: binding; conditions: 20 °C, pH 7.2
# NIH3T3 = experiment: MTT cytotoxicity assay; format: cell-based; conditions: Mus musculus, NIH3T3, 48 h
# RPMI-8226 = experiment: NCI-60 SRB growth assay; format: cell-based, human
# SR = experiment: NCI-60 SRB growth assay; format: cell-based, human; conditions: Homo sapiens
# HOP-92 = experiment: NCI-60 SRB growth assay; format: cell-based, human
# NCI-H460 = experiment: NCI-60 SRB growth assay; format: cell-based, human
# COLO 205 = experiment: NCI-60 SRB growth assay; format: cell-based, human
# HT29 = experiment: NCI-60 SRB growth assay; format: cell-based, human
# SF-268 = experiment: NCI-60 SRB growth assay; format: cell-based, human
# SNB-75 = experiment: NCI-60 SRB growth assay; format: cell-based, human
# MDA-MB-435 = experiment: NCI-60 SRB growth assay; format: cell-based, human
# SK-MEL-2 = experiment: NCI-60 SRB growth assay; format: cell-based, human; conditions: SK-MEL-2
# SK-MEL-28 = experiment: NCI-60 SRB growth assay; format: cell-based, human
# SK-MEL-5 = experiment: NCI-60 SRB growth assay; format: cell-based, human
# UACC-257 = experiment: NCI-60 SRB growth assay; format: cell-based, human
# OVCAR-4 = experiment: NCI-60 SRB growth assay; format: cell-based, human
# OVCAR-8 = experiment: NCI-60 SRB growth assay; format: cell-based, human
# NCI/ADR-RES = experiment: NCI-60 SRB growth assay; format: cell-based, human
# CAKI-1 = experiment: NCI-60 SRB growth assay; format: cell-based, human
# UO-31 = experiment: NCI-60 SRB growth assay; format: cell-based, human
# DU-145 = experiment: NCI-60 SRB growth assay; format: cell-based, human
# MCF7 = experiment: NCI-60 SRB growth assay; format: cell-based, human
# MDA-MB-231/ATCC = experiment: NCI-60 SRB growth assay; format: cell-based, human
# T-47D = experiment: NCI-60 SRB growth assay; format: cell-based, human
# Hu Topo I = target: T1, Hu Topo I (Homo sapiens, UniProt P11387); experiment: Plasmid DNA relaxation assay
# T1 sequence (P11387 1-765): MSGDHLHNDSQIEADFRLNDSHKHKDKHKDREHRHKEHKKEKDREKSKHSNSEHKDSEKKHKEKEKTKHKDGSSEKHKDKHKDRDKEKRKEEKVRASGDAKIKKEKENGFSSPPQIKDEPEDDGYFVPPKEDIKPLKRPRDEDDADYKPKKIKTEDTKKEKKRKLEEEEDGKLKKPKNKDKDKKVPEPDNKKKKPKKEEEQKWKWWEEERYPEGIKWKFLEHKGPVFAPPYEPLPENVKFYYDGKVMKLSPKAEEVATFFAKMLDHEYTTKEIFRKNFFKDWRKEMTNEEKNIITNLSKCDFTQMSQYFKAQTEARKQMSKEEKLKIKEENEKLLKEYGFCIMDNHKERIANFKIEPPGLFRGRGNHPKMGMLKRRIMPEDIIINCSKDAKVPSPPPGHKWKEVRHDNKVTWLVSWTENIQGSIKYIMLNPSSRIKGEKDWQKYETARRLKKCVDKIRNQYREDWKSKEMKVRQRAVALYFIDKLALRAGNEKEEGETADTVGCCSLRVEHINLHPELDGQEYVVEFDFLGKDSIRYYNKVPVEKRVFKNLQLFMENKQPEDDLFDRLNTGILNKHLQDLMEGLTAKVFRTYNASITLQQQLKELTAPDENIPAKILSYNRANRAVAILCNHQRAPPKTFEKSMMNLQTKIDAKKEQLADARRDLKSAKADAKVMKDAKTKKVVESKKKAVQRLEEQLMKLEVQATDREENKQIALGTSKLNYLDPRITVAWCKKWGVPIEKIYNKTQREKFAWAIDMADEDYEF
compound,measurement,setting,value
"CCCN1CCN(c2ccc3[nH]c(-c4ccc5[nH]c(-c6ccc(OCC)c(OCC)c6)nc5c4)nc3c2)CC1 [11a, 2-(2-(3,4-Diethoxyphenyl)-1H-benzo[d]imidazol-5-yl)-5-(4-propylpiperazin-1-yl)-1H-benzo[d]imidazole]",Ka binding affinity with oligo-1,[1],3 × 10^7 M^–1
same,Ka binding affinity with oligo-2,[2],5 × 10^6 M^1
same,IC50,NIH3T3,2300 nM
same,GI50,"RPMI-8226; Homo sapiens, RPMI-8226",470 nM
same,CC50,"RPMI-8226; Homo sapiens, RPMI-8226, read-out: LC50",> 100 µM
same,TGI,RPMI-8226; RPMI-8226,2.5 µM
same,GI50,SR,290 nM
same,CC50,SR; read-out: LC50,> 100 µM
same,TGI,HOP-92; HOP-92,4.5 µM
same,GI50,"HOP-92; Homo sapiens, HOP-92",1200 nM
same,CC50,"HOP-92; Homo sapiens, HOP-92, read-out: LC50",26.3 µM
same,GI50,"NCI-H460; Homo sapiens, NCI-H460",430 nM
same,CC50,"NCI-H460; Homo sapiens, NCI-H460, read-out: LC50",4.38 µM
same,TGI,NCI-H460; NCI–H460,1.51 µM
same,TGI,COLO 205; COLO 205,1.29 µM
same,GI50,"COLO 205; Homo sapiens, COLO 205",160 nM
same,CC50,"COLO 205; Homo sapiens, COLO 205, read-out: LC50",5.4 µM
same,TGI,HT29; HT29,2.3 µM
same,GI50,"HT29; Homo sapiens, HT-29",450 nM
same,CC50,"HT29; Homo sapiens, HT-29, read-out: LC50",> 100 µM
same,GI50,"SF-268; Homo sapiens, SF-268",1900 nM
same,CC50,"SF-268; Homo sapiens, SF-268, read-out: LC50",68.8 µM
same,TGI,SF-268; SF-268,11.5 µM
same,GI50,"SNB-75; Homo sapiens, SNB-75",710 nM
same,CC50,"SNB-75; Homo sapiens, SNB-75, read-out: LC50",4.3 µM
same,TGI,SNB-75; SNB-75,1.9 µM
same,GI50,"MDA-MB-435; Homo sapiens, MDA-MB-435",670 nM
same,CC50,"MDA-MB-435; Homo sapiens, MDA-MB-435, read-out: LC50",4.5 µM
same,TGI,MDA-MB-435; MDA-MB-435,1.9 µM
same,GI50,SK-MEL-2; Homo sapiens,14 µM
same,TGI,SK-MEL-2,3.1 µM
same,GI50,"SK-MEL-28; Homo sapiens, SK-MEL-28",910 nM
same,CC50,"SK-MEL-28; Homo sapiens, SK-MEL-28, read-out: LC50",5.2 µM
same,TGI,SK-MEL-28; SK-MEL-28,2.2 µM
same,GI50,"SK-MEL-5; Homo sapiens, SK-MEL-5",630 nM
same,CC50,"SK-MEL-5; Homo sapiens, SK-MEL-5, read-out: LC50",4.6 µM
same,TGI,SK-MEL-5; SK-MEL-5,2.01 µM
same,GI50,"UACC-257; Homo sapiens, UACC-257",790 nM
same,CC50,"UACC-257; Homo sapiens, UACC-257, read-out: LC50",9.4 µM
same,TGI,UACC-257; UACC-257,2.8 µM
same,GI50,"OVCAR-4; Homo sapiens, OVCAR-4",690 nM
same,CC50,"OVCAR-4; Homo sapiens, OVCAR-4, read-out: LC50",9.5 µM
same,TGI,OVCAR-4; OVCAR-4,2.8 µM
same,GI50,"OVCAR-8; Homo sapiens, OVCAR-8",450 nM
same,CC50,"OVCAR-8; Homo sapiens, OVCAR-8, read-out: LC50",> 100 µM
same,TGI,OVCAR-8; OVCAR-8,2.16 µM
same,TGI,NCI/ADR-RES,>100 µM
same,GI50,NCI/ADR-RES; Homo sapiens,> 100 µM
same,CC50,"NCI/ADR-RES; Homo sapiens, read-out: LC50",> 100 µM
same,TGI,CAKI-1; CAKI-1,3.03 µM
same,GI50,"CAKI-1; Homo sapiens, CAKI-1",1040 nM
same,CC50,"CAKI-1; Homo sapiens, CAKI-1, read-out: LC50",8.8 µM
same,GI50,"UO-31; Homo sapiens, UO-31",1670 nM
same,CC50,"UO-31; Homo sapiens, UO-31, read-out: LC50",8.76 µM
same,TGI,UO-31; UO-31,3.82 µM
same,TGI,DU-145; DU-145,2.02 µM
same,GI50,"DU-145; Homo sapiens, DU-145",440 nM
same,CC50,"DU-145; Homo sapiens, DU-145, read-out: LC50",12.4 µM
same,TGI,MCF7,1.53 µM
same,GI50,MCF7; Homo sapiens,350 nM
same,GI50,"MDA-MB-231/ATCC; Homo sapiens, MDA-MB-231",1380 nM
same,CC50,"MDA-MB-231/ATCC; Homo sapiens, MDA-MB-231, read-out: LC50",6.78 µM
same,TGI,MDA-MB-231/ATCC; MDA-MB-231,3.06 µM
same,GI50,"T-47D; Homo sapiens, T47D",910 nM
same,CC50,"T-47D; Homo sapiens, T47D, read-out: LC50",> 100 µM
same,TGI,T-47D; T-47D,9.11 µM
same,IC90,Hu Topo I,140 µM
